# Experimental data taken from article PMC8619434 (Viruses, 2021).
# Structures can show the parent of a compound that is named as a salt. Where two headings read alike, the source gives them in different places.
# Assays:
# [1] = tested on: SARS-CoV-2 spike protein pseudovirus; assay type: cell-based
# VSV-G pseudovirus = assay: microbe, parasite or virus in culture; assay type: cell-based, vesicular stomatitis virus; settings: for activity at 10 µM: Pseudovirus, 293T/ACE2, read-out: % Infectivity of VSV-G pv
# [2] = tested on: SARS-CoV-2 spike protein pseudovirus; assay: microbe, parasite or virus in culture; assay type: cell-based
# [3] = predictions for the uncharged form; ref https://go.drugbank.com; cited from earlier work
# in vitro = settings: human
# 293T-ACE2 cells = settings: for % viability (Table S3): 10 µM
# [4] = values for the salts; ref chemical supplier datasheets; cited from earlier work
# SARS-CoV-1-S pseudovirus = assay type: cell-based
# MERS-CoV-S pseudovirus = assay type: cell-based
# [5] = tested on: SARS-CoV-2 spike protein pseudovirus; assay type: cell-based; remark: listed apart in the source
# [6] = tested on: SARS-CoV-2 spike protein pseudovirus; settings: Caco-2
# [7] = tested on: SARS-CoV-2 spike protein pseudovirus; assay type: cell-based; remark: listed apart in the source
# [8] = tested on: SARS-CoV-2 spike protein pseudovirus; assay type: cell-based; remark: listed apart in the source
# [9] = 293T/ACE2, 48 h, read-out: % Infectivity of SARS-2-Spike pv
# [10] = 293T/ACE2, read-out: IC50 of SARS-CoV-2-S pseudovirus infectivity
# [11] = 10 µM; read-out: % infectivity (Table S3, kite-shaped molecules in order of inhibition)
Compound,activity at 10 µM (VSV-G pseudovirus),"activity at 10 µM [2, 9]","IC50 [2, 10]",viability (in vitro; % Viability of SARS-2-Spike pv),other results
CN1CCC(=C2c3ccccc3CCc3sccc32)CC1 [pizotifen malate],77%,7%,3.46 µM,106%,% infectivity of SARS-CoV-2 pseudovirus in Calu3 cells [1]: 13%; water solubility a [3]: 16 µM
Cc1cncc(CN2CCC(=C3c4ccc(Cl)cc4CCc4cccnc43)CC2)c1.O=C(O)/C=C/C(=O)O [Rupatadine Fumarate],,,,,"activity [2, 11]: 38%; % viability (Table S3) (293T-ACE2 cells): 74%"
CC(CN(C)C)CN1c2ccccc2CCc2ccccc21 (stereo not drawn) [trimipramine maleate],95%,14%,5.35 µM,92%,% infectivity of SARS-CoV-2 pseudovirus in Calu3 cells [1]: 8%; water solubility b [4]: 5000 µM; water solubility a [3]: 88 µM
CSc1ccc2c(c1)N(CCC1CCCCN1C)c1ccccc1S2 (stereo not drawn) [thioridazine HCl],69%,6%,,71%,% infectivity of SARS-CoV-2 pseudovirus in Calu3 cells [1]: 22%; inhibition of SARS-CoV-1-S pseudovirus infection (SARS-CoV-1-S pseudovirus): significant inhibition; water solubility b [4]: 122000 µM; inhibition of MERS-CoV-S pseudovirus infection (MERS-CoV-S pseudovirus): non-significant inhibition; water solubility a [3]: 2.1 µM; % infectivity in attachment assay [5]: 28%
CCOC(=O)C1=C(COCCN)NC(C)=C(C(=O)OC)C1c1ccccc1Cl (stereo not drawn) [amlodipine],,12%,5.6 µM,115%,toxicity in Calu3 cells (word printed in Figure 7) (Calu3 cells): toxic; inhibition of SARS-CoV-1-S pseudovirus infection (SARS-CoV-1-S pseudovirus): significant inhibition; % Infectivity of VSV-G pv (VSV-G pseudovirus): 78%; inhibition of MERS-CoV-S pseudovirus infection (MERS-CoV-S pseudovirus): non-significant inhibition
C[C@@H]1CCO[C@H]2Cn3cc(C(=O)NCc4ccc(F)cc4F)c(=O)c(O)c3C(=O)N12 [S/GSK1349572],,,,,"activity [2, 11]: 16.2%; % viability (Table S3) (293T-ACE2 cells): 94%"
CCOC(=O)C1=C(COCCN)NC(C)=C(C(=O)OC)C1c1ccccc1Cl (stereo not drawn) [amlodipine besylate],,,,,% Infectivity of VSV-G pv (VSV-G pseudovirus): 100%; % Infectivity of SARS-2-Spike pv [2]: 19%; % Viability of SARS-2-Spike pv (293T-ACE2 cells; human): 116%
CN(C)C(=O)COC(=O)Cc1ccc(OC(=O)c2ccc(NC(=N)N)cc2)cc1 [camostat mesylate],,120%,,,% infectivity of SARS-CoV-2 pseudovirus in Calu3 cells [1]: inhibited; inhibition of SARS-CoV-2 pseudovirus infection of Caco2 cells [6]: inhibited; inhibition of SARS-CoV-1-S pseudovirus infection (SARS-CoV-1-S pseudovirus): did not inhibit; % Infectivity of VSV-G pv (VSV-G pseudovirus): did not inhibit; inhibition of SARS-CoV-2 pseudovirus infection of A549-ACE2 cells [7]: failed to inhibit; inhibition of MERS-CoV-S pseudovirus infection (MERS-CoV-S pseudovirus): did not inhibit
CCOC(=O)C1OC1C(=O)NC(CC(C)C)C(=O)NCCC(C)C (stereo not drawn) [E64d],105%,9%,,95%,inhibition of SARS-CoV-1-S pseudovirus infection (SARS-CoV-1-S pseudovirus): inhibited; inhibition of MERS-CoV-S pseudovirus infection (MERS-CoV-S pseudovirus): inhibited
CN[C@H]1CC[C@@H](c2ccc(Cl)c(Cl)c2)c2ccccc21 [sertraline HCl],71%,8%,,95%,toxicity in Calu3 cells (word printed in Figure 7) (Calu3 cells): toxic
CNCCCC12CCC(c3ccccc31)c1ccccc12 [maprotiline HCl],89%,9%,,99%,water solubility b [4]: 159000 µM; water solubility a [3]: 150 µM
CC[C@H]1OC(=O)[C@H](C)[C@@H](O[C@H]2C[C@@](C)(OC)[C@@H](O)[C@H](C)O2)[C@H](C)[C@@H](O[C@@H]2O[C@H](C)C[C@H](N(C)C)[C@H]2O)[C@](C)(O)C[C@@H](C)CN(C)[C@H](C)[C@@H](O)[C@]1(C)O [azithromycin],,,0.78 µM,,% Infectivity of VSV-G pv (VSV-G pseudovirus): 93%; % Infectivity of SARS-2-Spike pv [2]: 3%; % Viability of SARS-2-Spike pv (293T-ACE2 cells; human): 100%
CN1CCN(CCCN2c3ccccc3Sc3ccc(C(F)(F)F)cc32)CC1 [trifluoperazine 2HCl],80%,5%,3.3 µM,83%,inhibition of SARS-CoV-1-S pseudovirus infection (SARS-CoV-1-S pseudovirus): significant inhibition; inhibition of MERS-CoV-S pseudovirus infection (MERS-CoV-S pseudovirus): non-significant inhibition
Cc1c(-c2ccc(O)cc2)n(Cc2ccc(OCCN3CCCCCC3)cc2)c2ccc(O)cc12.Cl [bazedoxifene Hcl],,,,,% Infectivity of VSV-G pv (VSV-G pseudovirus): 13%; % Infectivity of SARS-2-Spike pv [2]: 3%; % Viability of SARS-2-Spike pv (293T-ACE2 cells): 88%
Cc1nc2c([nH]1)-c1ccccc1N(C(=O)c1ccc(NC(=O)c3ccccc3-c3ccccc3)cc1)CC2.Cl [conivaptan hcl],,,,,"activity [2, 11]: 52%; % viability (Table S3) (293T-ACE2 cells): 102%"
"Cc1ccc(NC(=O)c2ccc(CN3CCN(C)CC3)cc2)cc1Nc1nccc(-c2cccnc2)n1 [imatinib mesylate, imatinib]",,,,,% Infectivity of SARS-2-Spike pv [2]: 1%; % Viability of SARS-2-Spike pv (293T-ACE2 cells; human): 22%
heparin sodium,,,,,% Infectivity of SARS-2-Spike pv [2]: 88%; % Viability of SARS-2-Spike pv (293T-ACE2 cells): 98%

Compound,activity at 10 µM (VSV-G pseudovirus),"activity at 10 µM [2, 9]","IC50 [2, 10]",viability (in vitro; % Viability of SARS-2-Spike pv),other results
CN(C)CCCN1c2ccccc2CCc2ccc(Cl)cc21 [clomipramine HCl],78%,9%,,115%,
COc1cc2c(Nc3ccc(Br)cc3F)ncnc2cc1OCC1CCN(C)CC1 [vandetanib],125%,1%,6.45 µM,,toxicity in Calu3 cells (word printed in Figure 7) (Calu3 cells): toxic; viability (in vitro): 89%
OCCOCCN1CCN(C2=Nc3ccccc3Sc3ccccc32)CC1 [quetiapine],,,,,"activity ([2]; read-out: % infectivity (Table S3, kite-shaped molecules in order of inhibition); 10 µM): 113%; % viability (Table S3) (293T-ACE2 cells; human): 101%"
CCN(CCO)CCCC(C)Nc1ccnc2cc(Cl)ccc12 (stereo not drawn) [hydroxychloroquine sulfate],103%,2%,0.66 µM,90%,inhibition of SARS-CoV-1-S pseudovirus infection (SARS-CoV-1-S pseudovirus): inhibited; water solubility b [4]: 200000 µM; IC50 ([2]; read-out: IC50 of SARS-CoV-2-S pseudovirus infectivity): 0.7 µM; inhibition of SARS-CoV-2 pseudovirus infection of A549-ACE2 cells [7]: failed to inhibit; inhibition of MERS-CoV-S pseudovirus infection (MERS-CoV-S pseudovirus): inhibited; water solubility a [3]: 60 µM; % infectivity in attachment assay [5]: did not inhibit attachment
CC[C@H]1OC(=O)[C@H](C)[C@@H](O[C@H]2C[C@@](C)(OC)[C@@H](O)[C@H](C)O2)[C@H](C)[C@@H](O[C@@H]2O[C@H](C)C[C@H](N(C)C)[C@H]2O)[C@](C)(O)C[C@@H](C)CN(C)[C@H](C)[C@@H](O)[C@]1(C)O [azithromycin dihydrate],100%,4%,,94%,
CN1CCN(CCCN2c3ccccc3Sc3ccc(Cl)cc32)CC1 [prochlorperazine],80%,16%,,94%,
Cc1ccc(NC(=O)c2ccc(CN3CCN(C)CC3)cc2)cc1Nc1nccc(-c2cccnc2)n1 [imatinib],,,,,% Infectivity of SARS-2-Spike pv [2]: 81%; % Viability of SARS-2-Spike pv (293T-ACE2 cells; human): 103%
CC/C(=C(\c1ccccc1)c1ccc(OCCN(C)C)cc1)c1ccccc1 [tamoxifen citrate],81%,10%,,107%,
CN1CC2c3ccccc3Oc3ccc(Cl)cc3C2C1 (stereo not drawn) [asenapine],71%,4%,,92%,water solubility b [4]: 9000 µM; combination effect with hydroxychloroquine on SARS-CoV-2 pseudovirus infectivity [2]: additive effects; water solubility a [3]: 78 µM
O=C(O[C@H]1CN2CCC1CC2)N1CCc2ccccc2[C@@H]1c1ccccc1 [solifenacin succinate],86%,12%,,,viability (in vitro): 99%
CN(C)CCCN1c2ccccc2CCc2ccccc21 [imipramine],84%,16%,,99%,
CN1CCCC(n2nc(Cc3ccc(Cl)cc3)c3ccccc3c2=O)CC1 (stereo not drawn) [azelastine HCl],81%,4%,4.84 µM,98%,
CN1CCN(c2nc(C3=C(c4c[nH]c5ccccc45)C(=O)NC3=O)c3ccccc3n2)CC1 [sotrastaurin],76%,8%,6.89 µM,89%,inhibition of SARS-CoV-1-S pseudovirus infection (SARS-CoV-1-S pseudovirus): significant inhibition; inhibition of MERS-CoV-S pseudovirus infection (MERS-CoV-S pseudovirus): non-significant inhibition
CN(C)CCC=C1c2ccccc2CCc2ccccc21 [amitriptyline HCl],80%,9%,4.98 µM,112%,water solubility b [4]: 99000 µM; water solubility a [3]: 14 µM
CN(C)CCCN1c2ccccc2Sc2ccc(Cl)cc21 [chlorpromazine HCl],58%,6%,3.79 µM,65%,"% infectivity, drug added at 1 hpi (post-entry) [8]: 35%; water solubility b [4]: 141000 µM; water solubility a [3]: 12 µM"
CCN(CC)CCCC(C)Nc1ccnc2cc(Cl)ccc12 (stereo not drawn) [chloroquine diphosphate],83%,1%,0.32 µM,,inhibition of SARS-CoV-1-S pseudovirus infection (SARS-CoV-1-S pseudovirus): inhibited; inhibition of SARS-CoV-2 pseudovirus infection of A549-ACE2 cells [7]: failed to inhibit; inhibition of MERS-CoV-S pseudovirus infection (MERS-CoV-S pseudovirus): inhibited; viability (in vitro): 123%
